Among the data in publication PMC2890037 (Biochemistry, 2010) are Km and Ki values, retold here.

Substitutions are numbered along the chain they refer to.

What all share (format): biochemical
Assay [1] deals with T1, triosephosphate isomerase (TIM), wildtype yeast (Saccharomyces cerevisiae, UniProt P00942).
T1 sequence (P00942 2-248): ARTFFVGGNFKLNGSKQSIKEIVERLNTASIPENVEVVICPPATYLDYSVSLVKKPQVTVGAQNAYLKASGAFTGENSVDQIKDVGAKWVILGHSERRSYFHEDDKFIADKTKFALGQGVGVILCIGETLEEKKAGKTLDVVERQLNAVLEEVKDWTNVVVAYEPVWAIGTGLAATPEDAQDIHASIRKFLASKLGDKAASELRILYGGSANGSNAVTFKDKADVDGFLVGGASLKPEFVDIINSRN
Nature of the assay: steady-state kinetics of isomerization. As to conditions: read-out: Km ^b mM.

Assay [2] has as its target T1, triosephosphate isomerase (TIM), wildtype yeast.
Assay [3] concerns the target T2, triosephosphate isomerase (TIM), K12G mutant yeast (Saccharomyces cerevisiae, UniProt P00942, K12G).
T2 sequence (P00942 2-248 K12G): T1 sequence (P00942 2-248) with K11G

What is called Km is the concentration of substrate that gives half-maximal velocity. For `O=C[C@H](O)COP(=O)(O)O` [GAP, (R)-glyceraldehyde 3-phosphate], in assay [1], the Michaelis-Menten constant (Km) turned out to be 1.1 ± 0.2 mM.
In general, Ki refers to the equilibrium dissociation constant of an inhibitor or competing ligand from its target. Regarding `O=C(O)COP(=O)(O)O` [PGA, 2-phosphoglycolate], the Ki amounted to 19 ± 4 µM in assay [2] and 1100 ± 200 µM in assay [3].
